These results are taken from ChEMBL document CHEMBL1135213, “New indene-derivatives with anti-proliferative properties” (Bioorg Med Chem Lett, 2002).

Calls of active or inactive are those of the source. No cut-off for these calls is given here.

Assay [1] deals with MDCK. As to the kind of experiment: Anti-proliferative activity was evaluated by its ability to inhibit proliferation of MDCK-f3 (Madin-Darby canine kidney f3) cell line. It counts as functional, cell-based, Canis lupus familiaris.
For assay [2], the system named is MDCK. The experiment in a line: Anti-proliferative activity was evaluated by its ability to inhibit proliferation of MDCK cells. It counts as functional, cell-based, Canis lupus familiaris.
Assay [3] deals with REF. The experiment in a line: Anti-proliferative activity was evaluated by its ability to inhibit proliferation of rat embryonic fibroblasts (REF). Type of assay: functional, cell-based.
The subject of assay [4] is SW480. The experiment in a line: Anti-proliferative activity was evaluated by its ability to inhibit proliferation of SW480 cells. Type of assay: functional, cell-based, Homo sapiens.
Assay [5] has as its system NIH3T3. As to the kind of experiment: Anti-proliferative activity was evaluated by its ability to inhibit proliferation of murine NIH3T3 fibroblasts. Type of assay: functional, cell-based, Mus musculus.
In assay [6] the target is T1, Cyclooxygenase (Homo sapiens) (UniProt P35354+P23219). The settings on record: Ovis aries.
Assay [7] relates to SW480. The experiment in a line: Anti-proliferative activity was evaluated by its ability to inhibit proliferation of SW480 cells; na means Not active. It counts as functional, cell-based, Homo sapiens.
Assay [8] is described as follows: Inhibition of p21ras protein and Raf kinase in vitro using recombinant proteins. Details: unit not given here.
A short description of assay [9]: Inhibition of p21ras protein and Raf kinase in vitro using recombinant proteins (inactive).
The target of assay [10] is T1, Cyclooxygenase (Homo sapiens). The experiment in a line: Half-maximal inhibition of the COX activity was measured by the direct analysis of the consumed O2 using isolated sheep seminal vesicles; na means Not active. Type of assay: functional. The settings on record: Ovis aries; target entry is the homologue from another species.
The test system of assay [11] is MDCK. As to the kind of experiment: Anti-proliferative activity was evaluated by its ability to inhibit proliferation of MDCK cells; na means Not active. It counts as functional, cell-based, Canis lupus familiaris.
For assay [12], the system named is MDCK. As to the kind of experiment: Anti-proliferative activity was evaluated by its ability to inhibit proliferation of MDCK-f3 (Madin-Darby canine kidney f3) cell line; na means Not active. It counts as functional, cell-based, Canis lupus familiaris.
The test system of assay [13] is NIH3T3. As to the kind of experiment: Anti-proliferative activity was evaluated by its ability to inhibit proliferation of murine NIH3T3 fibroblasts; na means Not active. Type of assay: functional, cell-based, Mus musculus.
For assay [14], the system named is REF. The experiment in a line: Anti-proliferative activity was evaluated by its ability to inhibit proliferation of rat embryonic fibroblasts (REF); na means Not active. Type of assay: functional, cell-based.

The IC50 is the concentration at which inhibition is half-maximal.

For `COc1cccc(C=C2C(C)=C(CC(=O)O)c3cc(F)ccc32)c1`, the IC50 with MDCK [1] (Canis lupus familiaris, MDCK) was 300 µM; with MDCK [2] (Canis lupus familiaris, MDCK) it was 275 µM; in the assay on REF [3] (Rattus norvegicus, REF) it was 200 µM; with SW480 [4] (Homo sapiens, SW480), 360 µM; in the assay with NIH3T3 [5] (Mus musculus, NIH3T3) it was 520 µM.

As for `COc1ccc(C=C2C(C)=C(CC(=O)O)c3cc(F)ccc32)cc1`, the IC50 in the assay on MDCK [1] (Canis lupus familiaris, MDCK) is 310 µM; in the assay on MDCK [2] (Canis lupus familiaris, MDCK), 460 µM; with REF [3] (Rattus norvegicus, REF), 500 µM; with NIH3T3 [5] (Mus musculus, NIH3T3), 480 µM; in the assay with SW480 [7], “Not Active”. Besides, the Inhibitory activity worked out at 1.6 in assay [6] and 10 in [8].

As to `CC1=C(CC(=O)O)c2cc(F)ccc2C1=Cc1ccc([S+](C)[O-])cc1` (stereo unspecified) [SULINDAC], the IC50 with MDCK [1] (Canis lupus familiaris, MDCK) was 320 µM; in the assay on MDCK [2] (Canis lupus familiaris, MDCK) it was 300 µM; in the assay on REF [3] (Rattus norvegicus, REF), 100 µM; with SW480 [4] (Homo sapiens, SW480), 800 µM; in the assay on NIH3T3 [5] (Mus musculus, NIH3T3) it was 200 µM. Also, the Inhibitory activity entry in assay [9] and in assay [10] was “inactive” each time.

Consider `CSc1ccc(/C=C2/C(C)=C(CC(=O)O)c3cc(F)ccc32)cc1` [SULINDAC SULFIDE], for which the IC50 in the assay on MDCK [1] (Canis lupus familiaris, MDCK) was determined as 200 µM; in the assay on MDCK [2] (Canis lupus familiaris, MDCK), 180 µM; with REF [3] (Rattus norvegicus, REF), 200 µM; with SW480 [4] (Homo sapiens, SW480), 200 µM; with NIH3T3 [5] (Mus musculus, NIH3T3) it was 350 µM. For the same molecule, the values for the Inhibitory activity in assay [6] and in [8] were 2.6 and 210, respectively.

As for `CC1=C(CC(=O)O)c2cc(F)ccc2C1=Cc1ccc(C)o1` [listing 1 of 2 here], the IC50 with MDCK [1] (mdck) is 310 µM; with MDCK [2] (mdck) it was 250 µM; with REF [3] (Rattus norvegicus, REF) it was 20 µM; in the assay on SW480 [4] (sw480) it was 380 µM; in the assay with NIH3T3 [5] (Mus musculus, NIH3T3) it was 100 µM.

For `CC1=C(CC(=O)O)c2cc(F)ccc2C1=Cc1ccc(S(=O)(=O)O)o1`, the IC50 result with MDCK [11], in the assay with MDCK [12], in the assay on NIH3T3 [13], with SW480 [7] and with REF [14] was “Not Active” in each case.

Regarding `CC1=C(CC(=O)O)c2cc(F)ccc2C1=Cc1ccc(C)o1` [listing 2 of 2 here], the IC50 with MDCK [1] (mdck) is 60 µM; with MDCK [2] (mdck) it was 60 µM; in the assay on REF [3] (ref), 10 µM; with SW480 [4] (sw480), 80 µM; in the assay on NIH3T3 [5] (nih3t3) it was 60 µM.

Turning to `CC1=C(CC(=O)O)c2cc(F)ccc2C1=Cc1cccs1`, the IC50 in the assay on MDCK [1] (Canis lupus familiaris, MDCK) is 80 µM; in the assay on MDCK [2] (Canis lupus familiaris, MDCK), 470 µM; with REF [3] (Rattus norvegicus, REF), 100 µM; in the assay on SW480 [4] (Homo sapiens, SW480) it was 320 µM; in the assay on NIH3T3 [5] (Mus musculus, NIH3T3), 400 µM. In addition, the Inhibitory activity result in assay [9] was “inactive”. Further, in assay [6], the Inhibitory activity amounted to 0.03.

Regarding `CC1=C(CC(=O)O)c2cc(F)ccc2C1=Cc1ccc(CO)o1` [listing 1 of 3 here], the Inhibitory activity came to 570 in assay [6] and 45 in assay [8].

`COc1ccccc1C=C1C(C)=C(CC(=O)O)c2cc(F)ccc21`: the IC50 with MDCK [1] (Canis lupus familiaris, MDCK) came out at 360 µM; with REF [3] (Rattus norvegicus, REF), 200 µM; with SW480 [4] (Homo sapiens, SW480), 850 µM; with NIH3T3 [5] (Mus musculus, NIH3T3), 500 µM.

Take `CC1=C(CC(=O)O)c2cc(F)ccc2C1=Cc1ccoc1`: the IC50 was 50 µM with MDCK [1] (Canis lupus familiaris, MDCK); 300 µM in the assay on MDCK [2] (Canis lupus familiaris, MDCK); 30 µM in the assay with REF [3] (Rattus norvegicus, REF); 400 µM with SW480 [4] (Homo sapiens, SW480); 170 µM with NIH3T3 [5] (Mus musculus, NIH3T3). The figures for the Inhibitory activity in assay [6] and in assay [8] were 0.24 and 30, respectively.

Regarding `CC1=C(CC(=O)O)c2cc(F)ccc2C1=Cc1ccc(CO)o1` [listing 2 of 3 here], the IC50 in the assay on MDCK [1] (Canis lupus familiaris, MDCK) came to 130 µM; in the assay with MDCK [2] (mdck), 250 µM; in the assay on REF [3] (Rattus norvegicus, REF), 90 µM; with SW480 [4] (sw480), 310 µM; in the assay on NIH3T3 [5] (Mus musculus, NIH3T3), 450 µM.

On to `CC1=C(CC(=O)O)c2cc(F)ccc2C1=Cc1ccc(CO)o1` [listing 3 of 3 here], for which the IC50 with MDCK [1] (mdck) turned out to be 120 µM; in the assay with MDCK [2] (mdck), 50 µM; in the assay with REF [3] (ref), 80 µM; with SW480 [4] (sw480), 70 µM; in the assay with NIH3T3 [5] (nih3t3), 490 µM.
